Experimental data taken from patent US20090239881A1 (Boehringer Ingelheim International GmbH, priority 2006, published 2009).

Assays:
[1] = after ingestion; cited from earlier work
5-HT1A receptor = target: T1, 5-HT1A receptor (Homo sapiens, UniProt P08908); details: cited from earlier work
T1 sequence (P08908 1-422): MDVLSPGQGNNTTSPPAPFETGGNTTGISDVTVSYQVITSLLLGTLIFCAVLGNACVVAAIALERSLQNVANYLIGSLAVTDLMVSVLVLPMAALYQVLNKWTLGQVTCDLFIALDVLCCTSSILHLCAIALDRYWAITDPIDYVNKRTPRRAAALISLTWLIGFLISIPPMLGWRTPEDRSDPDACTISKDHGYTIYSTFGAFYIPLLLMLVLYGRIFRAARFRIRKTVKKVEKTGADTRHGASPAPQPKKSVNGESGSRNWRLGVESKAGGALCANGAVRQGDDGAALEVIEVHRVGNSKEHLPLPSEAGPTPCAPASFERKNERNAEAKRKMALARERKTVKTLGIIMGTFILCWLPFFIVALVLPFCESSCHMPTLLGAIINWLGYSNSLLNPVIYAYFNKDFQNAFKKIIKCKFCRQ

5-HT2-receptor = details: cited from earlier work
[2] = system: Sexual Disorders and/or Dysfunctions; assay: Studies of female patients suffering from Sexual Disorders; format: in vivo, human
[3] = known use of flibanserin; cited from earlier work

Row | SMILES | physiological half-life [1] | affinity for the 5-HT1A receptor (5-HT1A receptor) | affinity for the 5-HT2-receptor (5-HT2-receptor) | effect on Sexual Disorders and/or Dysfunctions [2] | side effects (sedation) [3]
1 | Cn1c(=O)c2c(ncn2C)n(C)c1=O [caffeine] | three and a half to six | – | – | – | –
2 | O=c1[nH]c2ccccc2n1CCN1CCN(c2cccc(C(F)(F)F)c2)CC1 [flibanserin, 1-[2-(4-(3-trifluoromethyl-phenyl)piperazin-1-yl)ethyl]-2,3-dihydro-1H-benzimidazol-2-one] | – | shows affinity | shows affinity | positive effect | sometimes mild or moderate symptoms such as sedation may occur
